The nature of this data set: gradient 5% acetonitrile 3 min, to 50% in 2 min, to 85% in 15 min, held 3 min, 100 µL/min. The conditions noted are these: column: Zorbax Extend-C18 2.1 x 50 mm; eluents: water / acetonitrile, 0.1% formic acid. An outline of the steps: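 Pure standards were analyzed in mixtures of ~100 molecules using HPLC coupled to a quadrupole time-of-flight mass spectrometer, in both positive and negative ionization mode. Separation used a Zorbax Extend-C18 column (2.1 × 50 mm, 1.8 μm) at 100 μL/min, with water and acetonitrile each containing 0.1% formic acid. Dead and dwell volumes were 40 μL and 900 μL, and data were collected over 3 months. Retention time was read from computationally picked adduct peaks, each inspected manually.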
Take `CCCCS(=O)(=O)N1CCc2nc(-c3ccc(OC)cc3)ncc2C1`: the RP-LC retention time was determined as 983 s.

Compound `COc1ccc(S(=O)(=O)N2CCC3(CC2)CC(C)(O)CCO3)cc1OC` (stereo unspecified) came in with an RP-LC retention time of 612 s.

Turning to `O=C(NC1CCCCC1N1C(=O)CSC1=O)c1ccco1` (stereo unspecified), the RP-LC retention time worked out at 668 s.

In turn, `CCCNC(=O)C1CCCN(c2ccc(SCC(=O)Nc3ccc(Br)cc3)nn2)C1` (stereo unspecified) gave an RP-LC retention time of 710 s.

In the case of `O=C(NCc1cccc(Br)c1)C1CCN(c2cnc3nccnc3c2)CC1`, the RP-LC retention time was determined as 726 s.

With `O=C(NC1CCCCC1)C1CCCN(c2ccnc(-c3ccc(F)cc3)n2)C1` (stereo unspecified), the RP-LC retention time stood at 695 s.

The compound `CC(C)NC(=O)c1ccc(OCC2CCN(C(=O)c3ccc(Cl)cc3)CC2)cc1` showed an RP-LC retention time of 918 s.

As for `COc1cccc(-c2nc3cnccn3c2NCCC(=O)NC2CCCCCC2)c1`, the RP-LC retention time is 755 s.

As to `O=C(C1CC1)N1CCc2ccc(NS(=O)(=O)/C=C/c3ccccc3)cc21`, the RP-LC retention time was 819 s.

Regarding `N#Cc1cccc(C(=O)N2CCCn3nc(-c4ccc(Cl)cc4)cc3C2)c1`, the RP-LC retention time was 933 s.

`COc1ccc(NC(=O)Cn2ccc3sccc3c2=O)cc1`: the RP-LC retention time was found to be 706 s.

Turning to `CN(Cc1nc2cc(C(=O)N3CCCC3)ccc2n1C)C(=O)Nc1ccc(Br)cc1F`, the RP-LC retention time is 659 s.

Regarding `O=C(C1CCCN(c2nn3c(=O)c4c(nc3s2)CCCC4)C1)N1CCN(c2ccccn2)CC1` (stereo unspecified), the RP-LC retention time turned out to be 588 s.

`Cc1ccc(Cl)c2c1NC(=O)C2(O)CC(=O)c1ccccc1` (stereo unspecified) came in with an RP-LC retention time of 760 s.

Turning to `COC(=O)c1ccc2c(=O)n(-c3ccccc3)c(N3CCN(C)CC3)nc2c1`, the RP-LC retention time was determined as 624 s.

`CCOC(=O)C1CCN(c2nc(-c3ccc(OC)cc3)no2)CC1` displayed an RP-LC retention time of 981 s.

In the case of `Cc1nc2c(-c3ccc(F)cc3)c(C)nn2c(C)c1CCC(=O)N1CCN(c2ccccn2)CC1`, the RP-LC retention time was determined as 682 s.

`COc1ccc(-c2nnc(SCC(=O)N3CCC(C)CC3)o2)cc1`: the RP-LC retention time stood at 914 s.

Compound `Cc1nnc(C2CC3(CCN(CCCO)CC3)CN2Cc2ccccc2)o1` (stereo unspecified) came in with an RP-LC retention time of 577 s.

In the case of `O=S(=O)(c1ccc2nc(N3CCN(c4cccc(Cl)c4)CC3)ccc2c1)N1CCCCC1`, the RP-LC retention time was determined as 1240 s.

For the compound `COC(=O)c1cccc(NC(=O)c2cnc(-c3ccc(F)cc3)nc2-c2ccncc2)c1`, the RP-LC retention time turned out to be 912 s.

`CC(C)CC(=O)NCCc1csc(-c2ccc(Cl)cc2)n1` registered an RP-LC retention time of 881 s.

The compound `CCN(C(=O)C1CCCN1S(=O)(=O)c1cc2c(cc1C)NC(=O)C(C)O2)c1cccc(C)c1` (stereo unspecified) came in with an RP-LC retention time of 868 s.

For the compound `Cc1ccc(S(=O)(=O)n2ccn(C(=O)C(C)Oc3ccccc3)c2=O)cc1` (stereo unspecified), the RP-LC retention time was 712 s.

For `CCn1cc(C(=O)Nc2ccccc2C)c2cccnc21`, the RP-LC retention time was found to be 791 s.

Regarding `Cn1ccc2cc(S(=O)(=O)N3CCCC(C(=O)NCCN4CCCCC4)C3)ccc21` (stereo unspecified), the RP-LC retention time was 654 s.

The compound `CCOC(=O)c1c(C)n(C)c2ccc(OC(C)=O)cc12` registered an RP-LC retention time of 889 s.

With `COc1ccc(Cn2c(C)c(CNCc3ccco3)c(C(=O)O)c2C)cc1`, the RP-LC retention time was 673 s.

`O=C(NCc1ccco1)C1CCCN(c2nnc3c(Cl)cccn23)C1` (stereo unspecified) had an RP-LC retention time of 627 s.

The compound `Cc1nc(-c2ccc(C(=O)NC3CC3)cc2)no1` came in with an RP-LC retention time of 668 s.

As to `O=C(NCc1cccs1)C1CN(C(=O)c2ccc(F)c(F)c2)C1`, the RP-LC retention time is 688 s.

`CN1C(=O)COc2ccc(-c3csc(NC(=O)C4CC4)n3)cc21` returned an RP-LC retention time of 778 s.

Compound `Cc1cc2[nH]c(C(=O)Nc3c(F)cccc3F)c(CN3CCOCC3)c2s1` returned an RP-LC retention time of 675 s.

As for `CCn1cc(CCNC(=O)Nc2cccc(Cl)c2)c2cccnc21`, the RP-LC retention time worked out at 788 s.

For the compound `CCOC(=O)c1cnc(N2CCN(c3ccccc3OC)CC2)c2ccccc12`, the RP-LC retention time came to 1150 s.

Compound `Cc1cc2nn(CC(=O)N3CCC(C)CC3)c(=O)n2c(Nc2ccc(C)c(C)c2)n1` had an RP-LC retention time of 941 s.

Turning to `CCc1ccccc1NC(=O)N1CC=C(c2cn(C(C)C)c3ncccc23)CC1`, the RP-LC retention time turned out to be 958 s.

With `Cc1cc(OCC(=O)NCc2ccc3c(c2)OCO3)nc(N2CCCC(C)C2)n1` (stereo unspecified), the RP-LC retention time came to 671 s.

Regarding `N#Cc1cccc(NC(=O)COc2ccc(-c3nnc4n3CCCC4)cc2)c1`, the RP-LC retention time came out at 653 s.

`Nc1cc(C2CCN(C(=O)Nc3ccc(Cl)cc3F)CC2)no1` showed an RP-LC retention time of 717 s.

Turning to `Cc1nncn1C1CCN(S(=O)(=O)c2ccc(CC(C)C)cc2)CC1`, the RP-LC retention time stood at 822 s.

Compound `CCCCc1ccc(NC(=O)CSc2cc(N3CCN(c4ccc(OC)cc4)CC3)ncn2)cc1` came in with an RP-LC retention time of 1310 s.

Compound `COc1cccc(S(=O)(=O)N2CC(n3ccnc3)C2)c1` gave an RP-LC retention time of 601 s.

Take `CN(C)c1ccc(CNC(=O)C2CCN(c3cncnc3N3CCCC3)CC2)cc1`: the RP-LC retention time amounted to 555 s.

In the case of `O=C(NCC1CC1)c1c(-c2ccccc2)cc(=O)n2c1CCC2`, the RP-LC retention time stood at 660 s.

Consider `CCOC(=O)C1CCN(c2cc3c(cc2NC(=O)NC)n(C)c(=O)n3C)CC1`, for which the RP-LC retention time came to 633 s.

`CCOC1CCOC2(CCN(C(=O)c3ccco3)CC2)C1` (stereo unspecified) registered an RP-LC retention time of 691 s.

For the compound `Cc1nc(-c2ccncc2)nc2c1CCC(=O)N2CC1COCCO1` (stereo unspecified), the RP-LC retention time was determined as 591 s.

With `Cc1cnn(CC(=O)N2CC(n3cc(COc4ccc(F)cc4)nn3)C2)c1`, the RP-LC retention time is 714 s.

`O=C(Cc1csc(NC(=O)c2ccco2)n1)Nc1nc2ccc([N+](=O)[O-])cc2s1`: the RP-LC retention time turned out to be 797 s.

`Cc1ccc(-c2cc(C(N)=O)[nH]n2)c(C)c1` gave an RP-LC retention time of 668 s.

`CN1c2cc(F)ccc2C(=O)NC12CCN(C(=O)Nc1ccc(F)cc1F)CC2` registered an RP-LC retention time of 752 s.

On to `COc1c(C(=O)NCc2ccc(C)o2)sc2ccc(Cl)cc12`, for which the RP-LC retention time stood at 1120 s.

For `CCOc1ccc(C(=O)N2CCC(c3cc(N)on3)CC2)cc1`, the RP-LC retention time turned out to be 686 s.

In the case of `Cc1nc(-c2noc(-c3ccccc3)n2)cn1CC(=O)NCc1ccc(F)c(Cl)c1`, the RP-LC retention time is 866 s.

Take `CCCCNC(=O)CCC1CCCN(c2cc(NCC)ncn2)C1` (stereo unspecified): the RP-LC retention time is 641 s.

Compound `Cc1cc(F)cc2c(=O)c3c([nH]c12)CCN(CC(=O)Nc1ccc(F)c(Cl)c1)C3` registered an RP-LC retention time of 664 s.

The compound `O=C(c1nc2ccccc2s1)N(Cc1ccsc1)Cc1ccco1` yielded an RP-LC retention time of 1110 s.

Take `Cc1ccn2c(NC(=O)c3cccc(Cl)c3)c(-c3ccccc3)nc2c1`: the RP-LC retention time is 682 s.

On to `CCCNC(=O)C1CCCN(c2ccc(SCC(=O)Nc3ccc(OCC)cc3)nn2)C1` (stereo unspecified), for which the RP-LC retention time was 595 s.

As to `Cc1ccccc1NC(=O)C1CC(=O)N(c2ccc3c(c2)CCN3C(=O)C2CC2)C1` (stereo unspecified), the RP-LC retention time came out at 717 s.

Compound `CCN(CC)CCNC(=O)CC1Sc2ccccc2NC1=O` (stereo unspecified) yielded an RP-LC retention time of 591 s.

`Cc1ccc(N2N=C(C(=O)NCC3CCCO3)S(=O)(=O)c3cc(F)ccc32)cc1` (stereo unspecified) showed an RP-LC retention time of 877 s.

Compound `Cc1cc(S(=O)(=O)NCC2CCN(C(=O)NC(C)(C)C)CC2)c(Cl)cc1Cl` registered an RP-LC retention time of 927 s.

In the case of `Cc1nn(-c2nc(CC(=O)Nc3nc(-c4ccccc4)cs3)cs2)c(C)c1Cl`, the RP-LC retention time was 1270 s.

`Cc1cc(C)cc(Oc2nccn3c(=O)n(CC(=O)Nc4cccc(C(C)C)c4)nc23)c1` had an RP-LC retention time of 1080 s.

The compound `Cc1ccc(OCC(O)CN2CCN(c3ccccc3)CC2)cc1C` (stereo unspecified) gave an RP-LC retention time of 726 s.

Regarding `COc1ccc(-c2nc(-c3nnn(Cc4ccccc4)c3C)no2)cc1OC`, the RP-LC retention time is 959 s.

On to `O=C(CCC1CCCC1)Nc1cccc(-c2nnc3n2CCCC3)c1`, for which the RP-LC retention time stood at 762 s.

On to `CCc1ccc(NC(=O)Cn2c(N3CCCCC3)nc(C)cc2=O)cc1`, for which the RP-LC retention time stood at 661 s.

Compound `O=C(Nc1ccccc1)N1CCN(c2nc(-c3ccccc3)ns2)CC1` gave an RP-LC retention time of 1020 s.

The compound `CC(C)n1c(=O)c(NCCc2ccc(Cl)cc2)nc2ccncc21` showed an RP-LC retention time of 727 s.

In the case of `O=C(c1ccoc1)N1CCCC(c2cc(-c3ccccc3)n[nH]2)C1` (stereo unspecified), the RP-LC retention time was determined as 594 s.

`O=C(Nc1nc2cccc(-c3ccc(CN4CCS(=O)(=O)CC4)cc3)n2n1)C1CC1` gave an RP-LC retention time of 687 s.

Turning to `Cc1ccc(NC(=O)N2CCN(C3=CC4=NC(C)CN4C=N3)CC2)c(C)c1` (stereo unspecified), the RP-LC retention time was determined as 627 s.

In turn, `Cc1ccccc1Cn1c(C)c(CNCCc2ccco2)c(C(=O)O)c1C` returned an RP-LC retention time of 738 s.

`O=C(NC1CCCC1)C1CCCN(c2ncnc3c2oc2ccccc23)C1` (stereo unspecified) displayed an RP-LC retention time of 713 s.

Regarding `CCn1cnc2cc(-c3noc(C4CC(=O)N(c5ccc(C)cc5)C4)n3)ccc21` (stereo unspecified), the RP-LC retention time was 700 s.

As for `CC(C)(C)NC(=O)Cc1cccn1-c1ccc(F)cc1`, the RP-LC retention time was 925 s.

Compound `Cc1nn(-c2ccccc2)c(C)c1S(=O)(=O)N1CCN(c2ccccn2)CC1` displayed an RP-LC retention time of 664 s.

For `CCCCOc1ccc(-c2cc3c4nnc(CCC(=O)N5CCC(C(N)=O)CC5)n4ccn3n2)cc1`, the RP-LC retention time was 729 s.

The record behind these values is the METLIN SMRT retention time set (Domingo-Almenara et al. 2019).
